Data: ChEMBL document CHEMBL1133400, “Synthesis and pharmacology of a novel pyrrolo[2,1,5-cd] indolizine (NNC 45-0095), a high affinity non-steroidal agonist for the estrogen receptor” (Bioorg Med Chem Lett, 2000)

Key:
Ishikawa [1] = test: Percentp stimulation of alkaline phosphate activity in Ishikawa human endometrial adenocarcinoma cells relative to Moxestrol; format: functional
Ishikawa [2] = test: Stimulation of endometrial activity in Ishikawa human endometrial adenocarcinoma cells; format: functional, cell-based
Estrogen receptor [3] = target: Estrogen receptor (Mus musculus, UniProt O08537+P19785); test: Uterotrophic activity in immature mouse; format: functional, tissue-based, Uterus
[4] = target: Estrogen receptor (Mus musculus) (UniProt O08537+P19785); test: Percent maximal relative agonism for uterotrophic activity in immature mouse model; format: functional
Estrogen receptor [5] = target: Estrogen receptor (Homo sapiens, UniProt Q92731+P03372); test: Binding affinity for estrogen receptor of rabbit uterine […] muscle tissue; format: protein assay, Oryctolagus cuniculus; conditions: target entry is the homologue from another species

Estrogen receptor (Mus musculus), sequence (O08537 whole entry, looked up): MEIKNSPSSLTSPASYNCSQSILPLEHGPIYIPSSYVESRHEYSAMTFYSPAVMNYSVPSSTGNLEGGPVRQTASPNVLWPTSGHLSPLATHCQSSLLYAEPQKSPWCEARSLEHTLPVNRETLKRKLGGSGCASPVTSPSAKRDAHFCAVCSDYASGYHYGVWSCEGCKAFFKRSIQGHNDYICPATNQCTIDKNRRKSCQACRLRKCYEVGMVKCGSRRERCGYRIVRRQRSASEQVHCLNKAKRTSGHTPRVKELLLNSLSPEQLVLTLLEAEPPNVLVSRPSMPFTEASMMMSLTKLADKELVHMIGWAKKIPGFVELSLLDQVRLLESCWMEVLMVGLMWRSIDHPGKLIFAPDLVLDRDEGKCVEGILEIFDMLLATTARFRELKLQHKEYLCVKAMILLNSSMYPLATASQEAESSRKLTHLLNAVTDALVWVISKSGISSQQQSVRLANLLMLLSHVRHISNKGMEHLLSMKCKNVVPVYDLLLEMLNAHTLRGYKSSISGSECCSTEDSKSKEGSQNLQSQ
Estrogen receptor (Mus musculus), sequence (P19785 whole entry, looked up): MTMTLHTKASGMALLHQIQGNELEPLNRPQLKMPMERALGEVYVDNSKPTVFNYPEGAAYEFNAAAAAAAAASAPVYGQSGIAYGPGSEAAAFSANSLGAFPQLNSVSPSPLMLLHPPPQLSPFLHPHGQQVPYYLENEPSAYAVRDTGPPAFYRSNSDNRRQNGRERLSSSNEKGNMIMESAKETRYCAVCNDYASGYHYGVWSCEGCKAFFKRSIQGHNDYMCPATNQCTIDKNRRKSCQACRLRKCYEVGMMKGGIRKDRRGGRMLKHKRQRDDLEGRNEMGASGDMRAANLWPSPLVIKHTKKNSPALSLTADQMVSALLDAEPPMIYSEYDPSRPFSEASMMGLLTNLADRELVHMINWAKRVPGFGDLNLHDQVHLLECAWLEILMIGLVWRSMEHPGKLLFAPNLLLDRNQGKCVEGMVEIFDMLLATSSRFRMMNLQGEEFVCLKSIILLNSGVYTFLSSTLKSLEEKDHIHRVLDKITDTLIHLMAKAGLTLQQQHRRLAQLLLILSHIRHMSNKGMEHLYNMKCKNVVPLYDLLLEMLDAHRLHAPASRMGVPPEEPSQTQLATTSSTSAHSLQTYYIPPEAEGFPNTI

| SMILES | Emax (Ishikawa [1]) [%] | EC50 (Ishikawa [2]) [nM] | EC50 (Estrogen receptor [3]) [nM/g] | Activity [4] [%] | IC50 (Estrogen receptor [5]) [nM] |
| --- | --- | --- | --- | --- | --- |
| CCc1c(-c2ccc(O)cc2)c2ccc3cccc1n32 | 105 | 13 | 0.96 | 76 | – |
| C#C[C@]1(O)CC[C@H]2C3CCc4cc(O)ccc4[C@H]3[C@@H](OC)C[C@@]21C (single isomer, unassigned) [MOXESTROL] | 100 | 0.1 | – | – | 2.5 |
